According to patent US10030020B2, “Spirocycle compounds and methods of making and using same” (Abide Therapeutics, Inc., priority 2016, dated 2018):

Assays:
[1] = target: T1, MAGL (Mus musculus (Mouse), UniProt O35678); assay: In vitro competitive activity-based protein profiling (mouse brain membrane fraction or cell lysates), MAGL band; assay type: biochemical; settings: mouse proteome; for inhibition at 1 µM: read-out: MAGL % Inh 1 μM (mouse); for IC50: competitive ABPP
Experimental: In Vitro Competitive Activity-Based Protein Profiling.
Proteomes (mouse brain membrane fraction or cell lysates) (50 μL, 1.0 mg/mL total protein concentration) were preincubated with varying concentrations of inhibitors at 37° C. After 30 min, FP—Rh (1.0 μL, 50 μM in DMSO) was added and the mixture was incubated for another 30 min at 37° C. Reactions were quenched with SDS loading buffer (50 μL-4×) and run on SDS-PAGE.

[2] = target: T1, MAGL; assay: Mouse brain proteomes from inhibitor treated mice (oral gavage, sacrificed 4 h after administration, ABPP analysis); assay type: in vivo, mouse (C57Bl/6J); settings: 5 mg/kg oral gavage
How it was run: (§1)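 Mice (wild-type C57Bl/6J) receive inhibitor by oral gavage, e.g. in PEG400/Ethanol/PBS (7/2/1). Each animal is killed 4 h later. Brain proteomes are prepared and analyzed by ABPP, giving % inhibition at 5 mg/kg.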

[3] = target: T2, FAAH (Mus musculus (Mouse), UniProt O08914); assay: Mouse brain proteomes from inhibitor treated mice (oral gavage, sacrificed 4 h after administration, ABPP analysis), FAAH; assay type: in vivo, mouse (C57Bl/6J); settings: 5 mg/kg oral gavage
T2 sequence (O08914 whole entry): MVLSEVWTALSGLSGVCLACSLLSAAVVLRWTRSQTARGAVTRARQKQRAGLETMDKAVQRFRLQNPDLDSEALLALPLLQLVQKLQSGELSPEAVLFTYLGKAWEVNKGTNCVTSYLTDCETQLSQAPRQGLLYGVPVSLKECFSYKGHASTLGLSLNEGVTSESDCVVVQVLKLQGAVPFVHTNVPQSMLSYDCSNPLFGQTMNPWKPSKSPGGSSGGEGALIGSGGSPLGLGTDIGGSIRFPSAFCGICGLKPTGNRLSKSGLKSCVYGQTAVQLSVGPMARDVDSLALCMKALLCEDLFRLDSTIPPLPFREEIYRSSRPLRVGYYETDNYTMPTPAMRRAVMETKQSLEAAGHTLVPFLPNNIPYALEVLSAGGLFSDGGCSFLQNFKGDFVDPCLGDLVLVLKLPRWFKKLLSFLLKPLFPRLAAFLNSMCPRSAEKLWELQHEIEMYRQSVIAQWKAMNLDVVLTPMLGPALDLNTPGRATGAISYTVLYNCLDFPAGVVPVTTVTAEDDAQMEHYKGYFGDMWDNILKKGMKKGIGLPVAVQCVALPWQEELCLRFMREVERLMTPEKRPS
How it was run: as §1

[4] = target: T3, ABHD6 (Mus musculus (Mouse), UniProt Q8R2Y0); assay: In vitro competitive activity-based protein profiling (mouse brain membrane fraction or cell lysates), ABHD6 band; assay type: biochemical; settings: mouse proteome; for inhibition at 1 µM: read-out: ABHD6 % Inh 1 μM (mouse); for IC50: competitive ABPP
T3 sequence (Q8R2Y0 whole entry): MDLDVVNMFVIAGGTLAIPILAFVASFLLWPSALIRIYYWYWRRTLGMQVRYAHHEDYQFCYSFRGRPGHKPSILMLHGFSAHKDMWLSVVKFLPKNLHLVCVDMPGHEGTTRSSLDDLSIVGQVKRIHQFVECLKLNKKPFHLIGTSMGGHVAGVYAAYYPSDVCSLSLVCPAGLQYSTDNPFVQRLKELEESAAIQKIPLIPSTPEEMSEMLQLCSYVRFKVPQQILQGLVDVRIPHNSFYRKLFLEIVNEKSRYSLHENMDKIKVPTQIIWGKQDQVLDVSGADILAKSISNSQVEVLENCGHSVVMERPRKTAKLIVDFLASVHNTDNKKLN
How it was run: (§2)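 Mouse proteome samples (brain membrane fraction or cell lysate, 1.0 mg/mL protein) were pretreated with varying inhibitor concentrations and subsequently probed with fluorophosphonate-rhodamine, each step lasting 30 min at 37° C. Labelled proteins were separated by SDS-PAGE, and band fluorescence was imaged and quantified.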

[5] = target: T2, FAAH; assay: In vitro competitive activity-based protein profiling (mouse brain membrane fraction or cell lysates), FAAH band; assay type: biochemical; settings: mouse proteome; for inhibition at 1 µM: read-out: FAAH % Inh 1 μM (mouse); for IC50: competitive ABPP
How it was run: as §2

[6] = target: T3, ABHD6; assay: Mouse brain proteomes from inhibitor treated mice (oral gavage, sacrificed 4 h after administration, ABPP analysis), ABHD6; assay type: in vivo, mouse (C57Bl/6J); settings: 5 mg/kg oral gavage
How it was run: as §1

T1 sequence (O35678 whole entry): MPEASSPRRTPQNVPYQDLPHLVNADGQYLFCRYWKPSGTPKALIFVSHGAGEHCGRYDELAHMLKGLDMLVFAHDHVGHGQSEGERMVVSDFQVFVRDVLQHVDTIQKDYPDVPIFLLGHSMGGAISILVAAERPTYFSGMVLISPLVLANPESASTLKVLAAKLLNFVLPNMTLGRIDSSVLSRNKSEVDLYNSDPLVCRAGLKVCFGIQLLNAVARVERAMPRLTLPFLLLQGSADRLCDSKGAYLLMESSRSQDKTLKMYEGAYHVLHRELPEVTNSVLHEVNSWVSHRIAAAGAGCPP

Row | SMILES | inhibition at 1 µM [1] [%] | IC50 [1] [µM] | MAGL % Inh 5 mg/kg (mouse) [2] | FAAH % Inh 5 mg/kg (mouse) [3] | inhibition at 1 µM [4] [%] | IC50 [4] [µM] | inhibition at 1 µM [5] [%] | IC50 [5] [µM] | ABHD6 % Inh 5 mg/kg (mouse) [6]
1 | O=C(OC(C(F)(F)F)C(F)(F)F)N1CCC2(CCCN2Cc2cc(N3CCCC3)cc(C(F)(F)F)c2)CC1 [Example 36, 1,1,1,3,3,3-Hexafluoropropan-2-yl 1-(3-(pyrrolidin-1-yl)-5-(trifluoromethyl)benzyl)-1,8-diazaspiro[4.5]decane-8-carboxylate] | > 75 | < 0.1 | ### (### is ≥75%) | # (# is <25%) | < 25 | > 1 | < 25 | > 1 | # (# is <25%)
2 | O=C(OC(C(F)(F)F)C(F)(F)F)N1CCC2(CCCN2Cc2cc(OC(F)(F)F)cc(N3CCOCC3)c2)CC1 [Example 37, 1,1,1,3,3,3-Hexafluoropropan-2-yl 1-(3-morpholino-5-(trifluoromethoxy)benzyl)-1,8-diazaspiro[4.5]decane-8-carboxylate] | > 75 | < 0.1 | ### (### is ≥75%) | # (# is <25%) | < 25 | > 1 | < 25 | > 1 | # (# is <25%)
3 | O=C(OC(C(F)(F)F)C(F)(F)F)N1CCC2(CCCN2Cc2cc(N3CCS(=O)(=O)CC3)cc(C(F)(F)F)c2)CC1 [Example 42, 1,1,1,3,3,3-Hexafluoropropan-2-yl 1-(3-(1,1-dioxidothiomorpholino)-5-(trifluoromethyl)benzyl)-1,8-diazaspiro[4.5]decane-8-carboxylate] | > 75 | < 0.1 | ### (### is ≥75%) | # (# is <25%) | < 25 | > 1 | < 25 | > 1 | # (# is <25%)
4 | CS(=O)(=O)N1CCN(c2cc(CN3CCCC34CCN(C(=O)OC(C(F)(F)F)C(F)(F)F)CC4)cc(C(F)(F)F)c2)CC1 [Example 43, 1,1,1,3,3,3-Hexafluoropropan-2-yl 1-(3-(4-(methylsulfonyl)piperazin-1-yl)-5-(trifluoromethyl)benzyl)-1,8-diazaspiro[4.5]decane-8-carboxylate] | > 75 | < 0.1 | ## (## is equal to or greater than 25% but less than 75%) | # (# is <25%) | < 25 | > 1 | < 25 | > 1 | # (# is <25%)
5 | O=C(OC(C(F)(F)F)C(F)(F)F)N1CCC2(CCCN2Cc2cc(N3CCC(F)CC3)cc(C(F)(F)F)c2)CC1 [Example 45, 1,1,1,3,3,3-Hexafluoropropan-2-yl 1-(3-(4-fluoropiperidin-1-yl)-5-(trifluoromethyl)benzyl)-1,8-diazaspiro[4.5]decane-8-carboxylate] | – | < 0.1 | ## (## is equal to or greater than 25% but less than 75%) | # (# is <25%) | – | > 1 | – | > 1 | # (# is <25%)
6 | O=C(OC(C(F)(F)F)C(F)(F)F)N1CCC2(CCCN2Cc2cc(N3CC4COCC4C3)cc(C(F)(F)F)c2)CC1 (stereo not drawn) [Example 46, 1,1,1,3,3,3-Hexafluoropropan-2-yl 1-(3-(tetrahydro-1H-furo[3,4-c]pyrrol-5(3H)-yl)-5-(trifluoromethyl)benzyl)-1,8-diazaspiro[4.5]decane-8-carboxylate] | – | < 0.1 | ### (### is ≥75%) | # (# is <25%) | – | > 1 | – | > 1 | # (# is <25%)
7 | O=C(OC(C(F)(F)F)C(F)(F)F)N1CCC2(CCCN2Cc2cc(N3CCC3)cc(C(F)(F)F)c2)CC1 [Example 47, 1,1,1,3,3,3-Hexafluoropropan-2-yl 1-(3-(azetidin-1-yl)-5-(trifluoromethyl)benzyl)-1,8-diazaspiro[4.5]decane-8-carboxylate] | > 75 | < 0.1 | ### (### is ≥75%) | # (# is <25%) | < 25 | > 1 | < 25 | > 1 | # (# is <25%)
8 | CC1(C)CC2(CCN(C(=O)OC(C(F)(F)F)C(F)(F)F)CC2)CN1Cc1ccc(Cl)cc1 [Example 48, 1,1,1,3,3,3-Hexafluoropropan-2-yl 2-(4-chlorobenzyl)-3,3-dimethyl-2,8-diazaspiro[4.5]decane-8-carboxylate] | > 75 | < 0.1 | ### (### is ≥75%) | # (# is <25%) | ≥ 75 | 0.1 to 1 | < 25 | > 1 | ## (## is equal to or greater than 25% but less than 75%)
9 | CC1(C)CC2(CCN(C(=O)OC(C(F)(F)F)C(F)(F)F)CC2)CN1Cc1ccc(Cl)cc1N1CCOCC1 [Example 50, 1,1,1,3,3,3-Hexafluoropropan-2-yl 2-(4-chloro-2-morpholinobenzyl)-3,3-dimethyl-2,8-diazaspiro[4.5]decane-8-carboxylate] | > 75 | < 0.1 | ## (## is equal to or greater than 25% but less than 75%) | # (# is <25%) | 25 to 75 | > 1 | < 25 | > 1 | # (# is <25%)
10 | CC1(C)CC2(CCN(C(=O)OC(C(F)(F)F)C(F)(F)F)CC2)CN1Cc1ccc(C(F)(F)F)cc1N1CCOCC1 [Example 51, 1,1,1,3,3,3-Hexafluoropropan-2-yl 3,3-dimethyl-2-(2-morpholino-4-(trifluoromethyl)benzyl)-2,8-diazaspiro[4.5]decane-8-carboxylate] | > 75 | < 0.1 | ## (## is equal to or greater than 25% but less than 75%) | # (# is <25%) | < 25 | > 1 | < 25 | > 1 | # (# is <25%)
11 | CC1(C)CC2(CCN(C(=O)OC(C(F)(F)F)C(F)(F)F)CC2)CN1Cc1ccc(C(F)(F)F)cc1N1CCC2(CCOCC2)C1 [Example 52, 1,1,1,3,3,3-Hexafluoropropan-2-yl 2-(2-(8-oxa-2-azaspiro[4.5]decan-2-yl)-4-(trifluoromethyl)benzyl)-3,3-dimethyl-2,8-diazaspiro[4.5]decane-8-carboxylate] | > 75 | < 0.1 | # (# is <25%) | # (# is <25%) | < 25 | > 1 | < 25 | > 1 | # (# is <25%)
12 | CC1(C)CC2(CCN(C(=O)OC(C(F)(F)F)C(F)(F)F)CC2)CN1Cc1cccc(Cl)c1N1CCOCC1 [Example 54, 1,1,1,3,3,3-Hexafluoropropan-2-yl 2-(3-chloro-2-morpholinobenzyl)-3,3-dimethyl-2,8-diazaspiro[4.5]decane-8-carboxylate] | > 75 | < 0.1 | ## (## is equal to or greater than 25% but less than 75%) | # (# is <25%) | < 25 | > 1 | < 25 | > 1 | # (# is <25%)
13 | O=C(OC(C(F)(F)F)C(F)(F)F)N1CCC2(CCCN2Cc2ccccc2Cl)CC1 [Example 60, 1,1,1,3,3,3-Hexafluoropropan-2-yl 1-(2-chlorobenzyl)-1,8-diazaspiro[4.5]decane-8-carboxylate] | > 75 | < 0.1 | ### (### is ≥75%) | ## (## is equal to or greater than 25% but less than 75%) | < 25 | > 1 | < 25 | > 1 | # (# is <25%)
14 | O=C(OC(C(F)(F)F)C(F)(F)F)N1CCC2(CCCN2Cc2cccc(Cl)c2)CC1 [Example 61, 1,1,1,3,3,3-Hexafluoropropan-2-yl 1-(3-chlorobenzyl)-1,8-diazaspiro[4.5]decane-8-carboxylate] | > 75 | < 0.1 | ### (### is ≥75%) | ### (### is ≥75%) | 25 to 75 | > 1 | 25 to 75 | > 1 | # (# is <25%)
